Test results as given in patent US20230373972A1, “PIPERAZINE DERIVATIVE, PREPARATION METHOD THEREFOR AND USE THEREOF” (Zhejiang Hisun Pharmaceutical Co., Ltd., priority 2020, published 2023).

Legend:
[1] = target: T1, Native human Factor XIa protease (Homo sapiens, UniProt P03951); assay: Inhibition of activity of Factor XIa protease (chromogenic substrate S-2366); assay type: biochemical; conditions: S-2366 1 mM, 37° C. 10 minutes, absorption at 405 nm
T1 construct: The Native human Factor XIa protease was purchased from Abcam; purchased Abcam ab62411
Description: The following method was used to determine an inhibition degree of the compound of the present invention on an activity of Native human Factor XIa protease in vitro. In the method, a Factor XIa chromogenic substrate was used to test the inhibition degree on the activity of the Factor XIa protease. The Native human Factor XIa protease was purchased from Abcam (article number ab62411), and S-2366 was purchased from Chromogenix (article number 82109039). An experimental process was briefly described as follows: a test compound was dissolved in DMSO to prepare a 10 mM storage solution first, then the compound was diluted with a Factor XIa reaction buffer (100 mM Tris-HCl, 200 mM NaCl, 0.02% Tween 20, pH 7.4) by a quadruple gradient, and a final concentration of the test compound in a reaction system ranged from 10,000 nM to […]. The reaction was carried out in a 384-well microplate. 2 μL of the test compounds at different concentrations diluted with the reaction buffer were added to wells first, and 2 μL of 1% DMSO (a final concentration of DMSO in the reaction system was 0.1%) was used to replace blank and control wells. Subsequently, 8 μL of enzyme working solution (a final concentration of Factor XIa was […]) was added to each well, and 8 μL of Factor XIa reaction buffer was used to replace the blank well, centrifuged for 30 seconds, and incubated on ice for 5 minutes. Finally, 10 μL of substrate working solution (a final concentration of S-2366 was 1 mM) was added to each well, and centrifuged for 30 seconds, and the reaction was started. The solution was incubated at 37° C. for 10 minutes to determine a light absorption value at 405 nm. By comparing with a light absorption value of the control group (0.1% DMSO), a percentage inhibition rate of the compound at each concentration was calculated, and nonlinear regression analysis was carried out on value-inhibition rate with the concentration of the compound by GraphPad Prism 5 software, so as to obtain an IC50 value of the compound, as shown in Table 1.

human plasma = assay: In-vitro anticoagulation on human plasma (APTT kit, coagulation time); conditions: concentration of the compound when the coagulation time (APTT) was prolonged twice
Protocol: The following method was used to determine the in-vitro anticoagulation of the compound of the present invention in the human plasma. In the method, an APTT kit of the MediRox company was used to test. The APTT kit was purchased from MediRox (article number MRX930), and the human plasma was prepared internally.
The preparation of the human plasma was briefly described as follows: human plasma was collected in a blood collection tube containing sodium citrate, and centrifuged at 3,000 rpm for 10 minutes at room temperature, and plasma was collected, and packaged separately and stored at −80° C.
An APTT test process was briefly described as follows: a test compound was dissolved in DMSO to prepare a 10 mM storage solution first, then the test compound was diluted with DMSO by a triple gradient, and a final concentration of the test compound in a reaction system ranged from 217 μM to 0.03 μM. 4 μL, of test compounds at different concentrations diluted with DMSO were added to a centrifuge tube containing 180 μL of plasma, and 4 μL of DMSO was added to a blank group, shaken and mixed evenly, and incubated at 37° C. for 5 minutes. Subsequently, an APTT reagent was placed in a reagent holder according to instrument requirements, the incubated plasma sample was placed in a detection position of a coagulation analyzer, and a coagulation time was determined and recorded (s). With a final concentration of the compound as an abscissa and Ratio (Ratio=TiT0, wherein T0 was a coagulation time of a blank control, and Ti was a coagulation time of a compound to be tested) as an ordinate, a coagulation dose-effect curve was drawn by Graph Pad Prisms, and a concentration of the compound when the coagulation time was prolonged twice was calculated, which was namely a CT2 value, as shown in Table 2.

T1 sequence (P03951 388-625 limits assumed): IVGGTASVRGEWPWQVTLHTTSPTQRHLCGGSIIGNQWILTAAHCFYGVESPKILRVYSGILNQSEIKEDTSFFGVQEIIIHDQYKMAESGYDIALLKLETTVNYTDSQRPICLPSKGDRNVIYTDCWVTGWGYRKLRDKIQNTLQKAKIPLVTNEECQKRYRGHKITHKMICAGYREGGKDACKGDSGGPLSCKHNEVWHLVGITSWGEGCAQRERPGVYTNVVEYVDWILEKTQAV
T1 sequence (P03951 19-387 partner limits assumed): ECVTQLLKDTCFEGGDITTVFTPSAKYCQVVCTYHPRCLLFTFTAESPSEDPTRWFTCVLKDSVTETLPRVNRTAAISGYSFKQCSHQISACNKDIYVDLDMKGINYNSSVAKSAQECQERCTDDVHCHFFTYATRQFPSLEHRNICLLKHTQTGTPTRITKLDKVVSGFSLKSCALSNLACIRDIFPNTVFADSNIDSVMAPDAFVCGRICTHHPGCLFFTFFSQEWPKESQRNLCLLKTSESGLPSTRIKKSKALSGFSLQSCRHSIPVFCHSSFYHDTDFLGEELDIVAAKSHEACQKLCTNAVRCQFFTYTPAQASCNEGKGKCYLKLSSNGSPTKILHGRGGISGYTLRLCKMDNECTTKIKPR

Structure (SMILES) | IC50 [1] [nM] | CT2 (human plasma) [µM]
CNC(=O)c1ccc(NC(=O)C(Cc2ccccc2)N2CC(=O)N(c3cc(Cl)ccc3-n3cnnn3)CC2=O)cc1F (centres unmarked) [Example 20, 4-(2-(4-(5-Chloro-2-(1H-tetrazol-1-yl)phenyl)-2,5-dioxopiperazin-1-yl)-3-phenylpropanamido)-2-fluoro-N-methylbenzamide] | 30.5 | 8.6
COC(=O)c1ccc(NC(=O)C(Cc2ccccc2)N2CC(=O)N(c3cc(Cl)ccc3-n3cnnn3)CC2=O)cc1 (centres unmarked) [Example 5, Methyl 4-(2-(4-(5-Chloro-2-(1H-tetrazol-1-yl)phenyl)-2,5-dioxopiperazin-1-yl)-3-phenylpropanamido)benzoate] | 29.9 | 17.8
O=C(O)c1ccc(NC(=O)C(Cc2ccccc2)N2CC(=O)N(c3cc(Cl)ccc3-n3cnnn3)CC2=O)cc1 (centres unmarked) [Example 52, 4-(2-(4-(5-chloro-2-(1H-tetrazol-1-yl)phenyl)-2,5-dioxopiperazin-1-yl)-3-phenylpropanamido)benzoic Acid] | 17.6 | 2.0
[2H]C([2H])([2H])n1cc2cc(NC(=O)C(Cc3ccccc3)N3CC(=O)N(c4cc(Cl)ccc4-n4cc(Cl)nn4)CC3=O)ccc2n1 (centres unmarked) [Example 109, 2-(4-(5-Chloro-2-(4-chloro-1H-1,2,3-triazol-1-yl)phenyl)-2,5-dioxopiperazin-1-yl)-N-(2-(methyl-d3)-2H-indazol-5-yl)-3-phenylpropanamide] | 12.7 | 12.6
O=C(Nc1ccc2nccnc2c1)C(Cc1ccccc1)N1CC(=O)N(c2cc(Cl)ccc2-n2cnnn2)CC1=O (centres unmarked) [Example 18, 2-(4-(5-Chloro-2-(1H-tetrazol-1-yl)phenyl)-2,5-dioxopiperazin-1-yl)-3-phenyl-N-(quinoxalin-6-yl)propanamide] | 20.5 | 7.9
[2H]C([2H])([2H])n1cc2cc(NC(=O)C(Cc3ccc(F)cc3)N3CC(=O)N(c4cc(Cl)ccc4-n4cc(Cl)nn4)CC3=O)ccc2n1 (centres unmarked) [Example 114, 2-(4-(5-chloro-2-(4-chloro-1H-1,2,3-triazol-1-yl)phenyl)-2,5-dioxopiperazin-1-yl)-3-(4-fluorophenyl)-N-(2-(methyl-d3)-2H-indazol-5-yl)propanamide] | 48.6 | 14.9
O=C(Nc1ccc2c(cnn2C(F)F)c1)C(Cc1ccccc1)N1CC(=O)N(c2cc(Cl)ccc2-n2cnnn2)CC1=O (centres unmarked) [Example 33, 2-(4-(5-chloro-2-(1H-tetrazol-1-yl)phenyl)-2,5-dioxopiperazin-1-yl)-N-(1-(difluoromethyl)-1H-indazol-5-yl)-3-phenylpropanamide] | 26.1 | 18.5
O=C(Nc1ccn2nccc2c1)C(Cc1ccccc1)N1CC(=O)N(c2cc(Cl)ccc2-n2cnnn2)CC1=O (centres unmarked) [Example 37, 2-(4-(5-chloro-2-(1H-tetrazol-1-yl)phenyl)-2,5-dioxopiperazin-1-yl)-3-phenyl-N-(pyrazolo[1.5-a]pyridin-5-yl)propanamide] | 17.6 | 7.5
Cn1cc2ccc(NC(=O)C(Cc3ccccc3)N3CC(=O)N(c4cc(Cl)ccc4-n4cnnn4)CC3=O)cc2n1 (centres unmarked) [Example 31, 2-(4-(5-Chloro-2-(1H-tetrazol-1-yl)phenyl)-2,5-dioxopiperazin-1-yl)-N-(2-methyl-2H-indazol-6-yl)-3-phenylpropanamide] | 38.9 | 13.7
O=C1NCc2cc(NC(=O)C(Cc3ccccc3)N3CC(=O)N(c4cc(Cl)ccc4-n4cnnn4)CC3=O)ccc21 (centres unmarked) [Example 7, 2-(4-(5-Chloro-2-(1H-tetrazol-1-yl)phenyl)-2,5-dioxopiperazine-1-yl)-N-(1-oxoisoindolin-5-yl)-3-phenylpropanamide] | 15.5 | 9.8
NC(=O)c1ccc(NC(=O)C(Cc2ccccc2)N2CC(=O)N(c3cc(Cl)ccc3-n3cnnn3)CC2=O)cc1F (centres unmarked) [Example 35, 4-(2-(4-(5-Chloro-2-(1H-tetrazol-1-yl)phenyl)-2,5-dioxopiperazin-1-yl)-3-phenylpropanamido)-2-fluorobenzamide] | 32 | 5.8
O=C(Nc1ccc2nn(C(F)F)cc2c1)[C@H](Cc1ccccc1)N1CC(=O)N(c2cc(Cl)ccc2-n2cc(Cl)nn2)CC1=O [Example 97, (S)-2-(4-(5-chloro-2-(4-chloro-1H-1,2,3-triazol-1-yl)phenyl)-2,5-dioxopiperazin-1-yl)-N-(2-(difluoromethyl)-2H-indazol-5-yl)-3-phenylpropanamide] | 21.2 | 12.5
Cn1cc2cc(NC(=O)C(Cc3ccccc3)N3CC(=O)N(c4cc(Cl)ccc4-n4cnnn4)CC3=O)ccc2n1 (centres unmarked) [Example 19, 2-(4-(5-Chloro-2-(1H-tetrazol-1-yl)phenyl)-2,5-dioxopiperazin-1-yl)-N-(2-methyl-2H-indazol-5-yl)-3-phenylpropanamide] | 8.5 | 3.0
O=C(Nc1ccc2nn(C(F)F)cc2c1)C(Cc1ccccc1)N1CC(=O)N(c2cc(Cl)ccc2-n2cnnn2)CC1=O (centres unmarked) [Example 34, 2-(4-(5-Chloro-2-(1H-tetrazol-1-yl)phenyl)-2,5-dioxopiperazin-1-yl)-N-(2-(difluoromethyl)-2H-indazol-5-yl)-3-phenylpropanamide] | 10.4 | 5.9
O=C(O)c1ccc(NC(=O)C(Cc2ccccc2)N2CC(=O)N(c3cc(Cl)ccc3-n3cc(Cl)nn3)CC2=O)cc1 (centres unmarked) [Example 26, 4-(2-(4-(5-Chloro-2-(4-chloro-1H-1,2,3-triazol-1-yl)phenyl)-2,5-dioxopiperazin-1-yl)-3-phenylpropanamido)benzoic Acid] | 16.9 | 7.0
O=C1Cc2cc(NC(=O)C(Cc3ccccc3)N3CC(=O)N(c4cc(Cl)ccc4-n4cnnn4)CC3=O)ccc2N1 (centres unmarked) [Example 13, 2-(4-(5-Chloro-2-(1H-tetrazol-1-yl)phenyl)-2,5-dioxopiperazin-1-yl)-N-(2-oxoindolin-5-yl)-3-phenylpropanamide] | 14.9 | 4.0
